Laboratory results taken from patent publication US20260271933A1 (priority 2023, published 2026).

What was measured:
[1] = tested on: Plasmopara viticola; test: whole plant or invertebrate; assay type: in vivo; conditions: foliar
[2] = tested on: Pythium ultimum; test: Pythium ultimum / liquid culture (seedling damping off); assay type: cell-based; conditions: Globisporangium ultimum, growth inhibition determined photometrically, compared to untreated control
Method: Pythium ultimum/Liquid Culture (Seedling Damping Off)
Mycelia fragments and oospores of a newly grown liquid culture of the fungus are directly mixed into nutrient broth (PDB potato dextrose broth). After placing a (DMSO) solution of test compound into a microtiter plate (96-well format), the nutrient broth containing the fungal mycelia/spore mixture is added.
The test plates are incubated at 24° C. and the inhibition of growth is determined photometrically 2-3 days after application.

[3] = tested on: Phytophthora infestans; test: whole plant or invertebrate; assay type: in vivo; conditions: in Solanum lycopersicum, foliar, read-out: control of Phytophthora infestans

SMILES | pest or weed control at 200 ppm [1] [%] | inhibition of growth at 20 ppm [2] [%] | pest or weed control at 200 ppm [3] [%]
COC(=O)Nc1ccc(-c2cnc3c(C)cc(C(=O)N(C)c4cccc5c4OCC5)cn23)cn1 [Compound 1, methyl N-[5-[6-[2,3-dihydrobenzofuran-7-yl(methyl)carbamoyl]-8-methyl-imidazo[1,2-a]pyridin-3-yl]-2-pyridyl]carbamate] | ≥ 80 |  | 
COC(=O)Nc1ccc(-c2cnc3ccc(C(=O)N(C)c4cccc5c4OCC5)cn23)cn1 [Compound 4, methyl N-[5-[6-[2,3-dihydrobenzofuran-7-yl(methyl)carbamoyl]imidazo[1,2-a]pyridin-3-yl]-2-pyridyl]carbamate] | ≥ 80 | ≥ 80 | 
COC(=O)Nc1ccc(-c2cnc3c(C)cc(C(=O)N4CCOc5cc(F)ccc54)cn23)cn1 [Compound 5, methyl N-[5-[6-(7-fluoro-2,3-dihydro-1,4-benzoxazine-4-carbonyl)-8-methyl-imidazo[1,2-a]pyridin-3-yl]-2-pyridyl]carbamate] |  | ≥ 80 | ≥ 80
COC(=O)Nc1ccc(-c2cnc3ccc(C(=O)N4CCCc5c(C(=O)OC)cccc54)cn23)cn1 [Compound 7, methyl 1-[3-[6-(methoxycarbonylamino)-3-pyridyl]imidazo[1,2-a]pyridine-6-carbonyl]-3,4-dihydro-2H-quinoline-5-carboxylate] | ≥ 80 | ≥ 80 | 
COC(=O)Nc1ccc(-c2cnc3ccc(C(=O)N4CC(C)Cc5ccccc54)cn23)cn1 (stereo not shown) [Compound 8, methyl N-[5-[6-(3-methyl-3,4-dihydro-2H-quinoline-1-carbonyl)imidazo[1,2-a]pyridin-3-yl]-2-pyridyl]carbamate] |  | ≥ 80 | 
COC(=O)Nc1ccc(-c2cnc3ccc(C(=O)N(C)c4cccc(F)c4OC)cn23)cn1 [Compound 12, methyl N-[5-[6-[(3-fluoro-2-methoxy-phenyl)-methyl-carbamoyl]imidazo[1,2-a]pyridin-3-yl]-2-pyridyl]carbamate] |  | ≥ 80 | ≥ 80
COC(=O)Nc1ccc(-c2cnc3ccc(C(=O)N4CCCc5c(F)cccc54)cn23)cn1 [Compound 13, methyl N-[5-[6-(5-fluoro-3,4-dihydro-2H-quinoline-1-carbonyl)imidazo[1,2-a]pyridin-3-yl]-2-pyridyl]carbamate] |  | ≥ 80 | 
COC(=O)Nc1ccc(-c2cnc3ccc(C(=O)N4c5ccccc5CCC4C)cn23)cn1 (stereo not shown) [Compound 14, methyl N-[5-[6-(2-methyl-3,4-dihydro-2H-quinoline-1-carbonyl)imidazo[1,2-a]pyridin-3-yl]-2-pyridyl]carbamate] |  | ≥ 80 | 
COC(=O)Nc1ccc(-c2cnc3ccc(C(=O)N4CCCc5cc(Cl)cc(F)c54)cn23)cn1 [Compound 17, methyl N-[5-[6-(6-chloro-8-fluoro-3,4-dihydro-2H-quinoline-1-carbonyl)imidazo[1,2-a]pyridin-3-yl]-2-pyridyl]carbamate] |  | ≥ 80 | ≥ 80
COC(=O)Nc1ccc(-c2cnc3ccc(C(=O)N4CC(O)Cc5cc(F)ccc54)cn23)cn1 (stereo not shown) [Compound 24, methyl N-[5-[6-(6-fluoro-3-hydroxy-3,4-dihydro-2H-quinoline-1-carbonyl)imidazo[1,2-a]pyridin-3-yl]-2-pyridyl]carbamate] |  | ≥ 80 | ≥ 80
COC(=O)Nc1ccc(-c2cnc3ccc(C(=O)N4CCCc5cc(F)c(F)cc54)cn23)cn1 [Compound 26, methyl N-[5-[6-(6,7-difluoro-3,4-dihydro-2H-quinoline-1-carbonyl)imidazo[1,2-a]pyridin-3-yl]-2-pyridyl]carbamate] |  | ≥ 80 | 
COC(=O)Nc1ccc(-c2cnc3ccc(C(=O)N4CCCc5c(C)cccc54)cn23)cn1 [Compound 27, methyl N-[5-[6-(5-methyl-3,4-dihydro-2H-quinoline-1-carbonyl)imidazo[1,2-a]pyridin-3-yl]-2-pyridyl]carbamate] |  | ≥ 80 | ≥ 80
COC(=O)Nc1ccc(-c2cnc3ccc(C(=O)N4CCCc5c4ccc(C)c5F)cn23)cn1 [Compound 28, methyl N-[5-[6-(5-fluoro-6-methyl-3,4-dihydro-2H-quinoline-1-carbonyl)imidazo[1,2-a]pyridin-3-yl]-2-pyridyl]carbamate] |  | ≥ 80 | 
COC(=O)Nc1ccc(-c2cnc3ccc(C(=O)N4CC(OC)Cc5ccccc54)cn23)cn1 (stereo not shown) [Compound 32, methyl N-[5-[6-(3-methoxy-3,4-dihydro-2H-quinoline-1-carbonyl)imidazo[1,2-a]pyridin-3-yl]-2-pyridyl]carbamate] |  | ≥ 80 | ≥ 80
COC(=O)Nc1ccc(-c2cnc3ccc(C(=O)N(C)c4cccc(Cl)c4Cl)cn23)cn1 [Compound 39, methyl N-[5-[6-[(2,3-dichlorophenyl)-methyl-carbamoyl]imidazo[1,2-a]pyridin-3-yl]-2-pyridyl]carbamate] | ≥ 80 |  | 
COC(=O)Nc1ccc(-c2cnc3ccc(C(=O)N4CC(O)Cc5ccccc54)cn23)cn1 (stereo not shown) [Compound 43, methyl N-[5-[6-(3-hydroxy-3,4-dihydro-2H-quinoline-1-carbonyl)imidazo[1,2-a]pyridin-3-yl]-2-pyridyl]carbamate] |  | ≥ 80 | ≥ 80
COC(=O)Nc1ccc(-c2cnc3ccc(C(=O)N(C)c4ccccc4C(=O)OC)cn23)cn1 [Compound 46, methyl 2-[[3-[6-(methoxycarbonylamino)-3-pyridyl]imidazo[1,2-a]pyridine-6-carbonyl]-methyl-amino]benzoate] |  | ≥ 80 | ≥ 80
COC(=O)Nc1ccc(-c2cnc3ccc(C(=O)N(C)c4cc(Cl)ccc4C)cn23)cn1 [Compound 47, methyl N-[5-[6-[(5-chloro-2-methyl-phenyl)-methyl-carbamoyl]imidazo[1,2-a]pyridin-3-yl]-2-pyridyl]carbamate] |  | ≥ 80 | 
COC(=O)Nc1ccc(-c2cnc3ccc(C(=O)N4CCCc5cc(Cl)ccc54)cn23)cn1 [Compound 48, methyl N-[5-[6-(6-chloro-3,4-dihydro-2H-quinoline-1-carbonyl)imidazo[1,2-a]pyridin-3-yl]-2-pyridyl]carbamate] |  | ≥ 80 | 
COC(=O)Nc1ccc(-c2cnc3ccc(C(=O)N(C)c4ccc(Cl)cc4F)cn23)cn1 [Compound 53, methyl N-[5-[6-[(4-chloro-2-fluoro-phenyl)-methyl-carbamoyl]imidazo[1,2-a]pyridin-3-yl]-2-pyridyl]carbamate] |  | ≥ 80 | 
COC(=O)Nc1ccc(-c2cnc3ccc(C(=O)N(C)c4cc(F)ccc4F)cn23)cn1 [Compound 54, methyl N-[5-[6-[(2,5-difluorophenyl)-methyl-carbamoyl]imidazo[1,2-a]pyridin-3-yl]-2-pyridyl]carbamate] |  | ≥ 80 | ≥ 80
COC(=O)Nc1ccc(-c2cnc3ccc(C(=O)N4CCCc5ccc(OC)cc54)cn23)cn1 [Compound 56, methyl N-[5-[6-(7-methoxy-3,4-dihydro-2H-quinoline-1-carbonyl)imidazo[1,2-a]pyridin-3-yl]-2-pyridyl]carbamate] |  | ≥ 80 | 
COC(=O)Nc1ccc(-c2cnc3ccc(C(=O)N4CCCc5c(OC(F)F)cccc54)cn23)cn1 [Compound 58, methyl N-[5-[6-[5-(difluoromethoxy)-3,4-dihydro-2H-quinoline-1-carbonyl]imidazo[1,2-a]pyridin-3-yl]-2-pyridyl]carbamate] |  | ≥ 80 | 
CCN(C(=O)c1ccc2ncc(-c3ccc(NC(=O)OC)nc3)n2c1)c1ccccc1C(=O)OC [Compound 59, methyl 2-[ethyl-[3-[6-(methoxycarbonylamino)-3-pyridyl]imidazo[1,2-a]pyridine-6-carbonyl]amino]benzoate] |  |  | ≥ 80
COC(=O)Nc1ccc(-c2cnc3ccc(C(=O)N(C)c4ccccc4OC)cn23)cn1 [Compound 60, methyl N-[5-[6-[(2-methoxyphenyl)-methyl-carbamoyl]imidazo[1,2-a]pyridin-3-yl]-2-pyridyl]carbamate] |  | ≥ 80 | 
COC(=O)Nc1ccc(-c2cnc3ccc(C(=O)N(C)c4cc(Cl)ccc4OC)cn23)cn1 [Compound 61, methyl N-[5-[6-[(5-chloro-2-methoxy-phenyl)-methyl-carbamoyl]imidazo[1,2-a]pyridin-3-yl]-2-pyridyl]carbamate] |  | ≥ 80 | 
COC(=O)Nc1ccc(-c2cnc3ccc(C(=O)N4CCCc5c4ccc(F)c5OC)cn23)cn1 [Compound 62, methyl N-[5-[6-(6-fluoro-5-methoxy-3,4-dihydro-2H-quinoline-1-carbonyl)imidazo[1,2-a]pyridin-3-yl]-2-pyridyl]carbamate] |  | ≥ 80 | ≥ 80
COC(=O)Nc1ccc(-c2cnc3ccc(C(=O)N4CCCc5cc(OC)c(F)cc54)cn23)cn1 [Compound 63, methyl N-[5-[6-(7-fluoro-6-methoxy-3,4-dihydro-2H-quinoline-1-carbonyl)imidazo[1,2-a]pyridin-3-yl]-2-pyridyl]carbamate] |  | ≥ 80 | 
COC(=O)Nc1ccc(-c2cnc3ccc(C(=O)N(C)c4ccc(Cl)cn4)cn23)cn1 [Compound 68, methyl N-[5-[6-[(5-chloro-2-pyridyl)-methyl-carbamoyl]imidazo[1,2-a]pyridin-3-yl]-2-pyridyl]carbamate] |  | ≥ 80 | 
COC(=O)Nc1ccc(-c2cnc3ccc(C(=O)N(C)c4ccc(F)cc4F)cn23)cc1 [Compound 78, methyl N-[4-[6-[(2,4-difluorophenyl)-methyl-carbamoyl]imidazo[1,2-a]pyridin-3-yl]phenyl]carbamate] | ≥ 80 | ≥ 80 | 
